Several values for one entry are separate records, joined by “and”; a condition that tells them apart may be missing. Equal entries are not always repeated.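 All cell lines were grown in 96-well plates and treated with compound for 48 hours. The concentration for 50% growth inhibition is given as GI50. TGI denotes the concentration required for complete inhibition of growth.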 A value given as a limit tells only on which side of the number the result lay.

Among the test systems are ACHN renal; EKVX NSCLC; HOP-62 NSCLC; K-562 leukemia; OVCAR-4 ovarian; RXF 393 renal; SF-295 CNS; SK-MEL-28 melanoma; SK-OV-3 ovarian; SN12C renal.
What all share (test): NCI anticancer screen, dose series, 48 h

With `CCCn1c(N)c(C(=O)N/N=C(/C)c2cc3cccc(OC)c3o2)sc1=S`, the GI50 with ACHN renal was 46.8 µM; with EKVX NSCLC it was 32.6 µM; in the assay with HOP-62 NSCLC it was 11.8 µM; in the assay on K-562 leukemia it was 18.3 µM; with OVCAR-4 ovarian it was 49.7 µM; with RXF 393 renal it was 24.1 µM. Further, the GI50 in the assay on SF-295 CNS was 0.01 µM; with SK-MEL-28 melanoma it was 49.7 µM; in the assay with SK-OV-3 ovarian, 65.4 µM; with SN12C renal it was 45 µM. Besides, the TGI in the assay with ACHN renal was greater than 100 µM; with EKVX NSCLC, greater than 100 µM; with HOP-62 NSCLC, 30 µM; in the assay with K-562 leukemia, greater than 100 µM; with OVCAR-4 ovarian, greater than 100 µM; in the assay on RXF 393 renal it was greater than 100 µM. Moreover, the TGI is 18.1 µM with SF-295 CNS, greater than 100 µM in the assay on SK-MEL-28 melanoma, greater than 100 µM in the assay with SK-OV-3 ovarian and greater than 100 µM with SN12C renal.

Regarding `CC(=O)OC12c3ccccc3-c3ccccc3C1C1C(=O)N(C)C(=O)C12Cl` (centres undefined), the TGI in the assay on ACHN renal, in the assay on EKVX NSCLC, with HOP-62 NSCLC, in the assay with K-562 leukemia, in the assay on OVCAR-4 ovarian and in the assay on RXF 393 renal was greater than 10 µM in each case. Also, the TGI in the assay with SF-295 CNS, in the assay on SK-MEL-28 melanoma, with SK-OV-3 ovarian and in the assay on SN12C renal was greater than 10 µM each time.

For `C=CCCCCCCCCCCC1(O)C=CC2=[N+](CCCCCN=C(N)N)CCCN21` (centres undefined), the GI50 in the assay with ACHN renal is 11.5 µM; in the assay on EKVX NSCLC it was 10.8 µM; with HOP-62 NSCLC, 8.68 µM; with K-562 leukemia it was 2.76 µM; in the assay on OVCAR-4 ovarian it was 4.84 µM; in the assay on RXF 393 renal, 3.19 µM. The GI50 in the assay with SF-295 CNS was 7.2 µM; with SK-MEL-28 melanoma it was 13.6 µM; with SK-OV-3 ovarian, 19.1 µM. Moreover, the TGI with ACHN renal was 24.5 µM; in the assay with EKVX NSCLC, 26.7 µM; in the assay on HOP-62 NSCLC, 32 µM; with K-562 leukemia it was 15.9 µM; in the assay with OVCAR-4 ovarian, 19.9 µM; with RXF 393 renal it was 19.3 µM. Moreover, the TGI in the assay on SF-295 CNS is 24.9 µM; in the assay with SK-MEL-28 melanoma it was 31.8 µM; with SK-OV-3 ovarian, 38.5 µM; in the assay on SN12C renal, 11.3 µM.

Regarding `CC1(C)OCCn2c1nc1c(N3CCOCC3)nc(-c3cnc(N)nc3)nc12`, the GI50 with ACHN renal is 0.274 µM; in the assay with EKVX NSCLC, 0.16 µM; in the assay on HOP-62 NSCLC, 0.477 µM; in the assay on K-562 leukemia, 2.27 µM; with OVCAR-4 ovarian, 0.278 µM; in the assay on RXF 393 renal, 0.211 µM. Besides, the GI50 was 0.213 µM in the assay on SF-295 CNS, 0.231 µM in the assay on SK-MEL-28 melanoma, 0.102 µM with SK-OV-3 ovarian and 0.301 µM with SN12C renal. Further, the TGI with ACHN renal is greater than 100 µM; in the assay on EKVX NSCLC, 2.64 µM; in the assay with HOP-62 NSCLC, 6.56 µM; in the assay on K-562 leukemia, greater than 100 µM; in the assay on OVCAR-4 ovarian, 8.82 µM; with RXF 393 renal it was 1.69 µM. The TGI in the assay on SF-295 CNS is 1.92 µM; with SK-MEL-28 melanoma, 4.08 µM; with SK-OV-3 ovarian, 0.495 µM; with SN12C renal it was greater than 48.3 µM.

`Oc1cc(O)c2c(c1)OC(c1ccc(O)c(O)c1)C(OC1(c3cc(O)c(O)c(O)c3)Oc3cc(O)cc(O)c3C(O)C1O)C2` (centres undefined): the TGI in the assay with ACHN renal is greater than 100 µM; in the assay on EKVX NSCLC it was 41.6 µM; in the assay on HOP-62 NSCLC it was 56.2 µM; with K-562 leukemia it was 43.6 µM; with OVCAR-4 ovarian, 67.3 µM; in the assay with RXF 393 renal, greater than 100 µM. The TGI in the assay on SF-295 CNS was greater than 100 µM; in the assay on SK-MEL-28 melanoma it was greater than 68.5 µM; with SK-OV-3 ovarian it was greater than 100 µM; in the assay on SN12C renal, 46.2 µM.

In the case of `CC(=O)c1cc2c(o1)C(=O)c1ccccc1C2=O`, the GI50 in the assay with ACHN renal is 0.467 µM and 0.415 µM; in the assay on EKVX NSCLC, 1.19 µM and 1.55 µM; in the assay with HOP-62 NSCLC it was 0.163 µM and 0.186 µM; in the assay with K-562 leukemia, 0.284 µM and 0.311 µM; in the assay on OVCAR-4 ovarian it was 0.255 µM and 0.377 µM; with RXF 393 renal, 0.239 µM and 0.249 µM. The GI50 in the assay with SF-295 CNS was 0.173 µM; with SK-MEL-28 melanoma it was 0.222 µM and 0.292 µM; in the assay on SK-OV-3 ovarian, 1.41 µM and 1.78 µM; with SN12C renal, 0.177 µM. Further, the TGI with ACHN renal was 1.6 µM and 1.31 µM; in the assay on EKVX NSCLC, 2.96 µM and 3.41 µM; with HOP-62 NSCLC, 0.329 µM and 0.35 µM; with K-562 leukemia, 0.795 µM and 1.53 µM; in the assay with OVCAR-4 ovarian, 0.767 µM and 1.48 µM; in the assay on RXF 393 renal, 0.563 µM and 0.634 µM. The TGI with SF-295 CNS was 0.332 µM and 0.317 µM; in the assay with SK-MEL-28 melanoma, 0.437 µM and 0.689 µM; in the assay with SK-OV-3 ovarian, 2.86 µM and 3.3 µM; in the assay on SN12C renal it was 0.346 µM.

Turning to `CCOc1ccc2nc(S/C(=C/C=C(C#N)C#N)c3ccc(C)cc3)sc2c1`, the GI50 with ACHN renal was 18.4 µM; in the assay with EKVX NSCLC, greater than 100 µM; in the assay on HOP-62 NSCLC, 44.9 µM; with K-562 leukemia, 5.28 µM; with OVCAR-4 ovarian it was 94.4 µM; with RXF 393 renal, 19.9 µM. In addition, the GI50 in the assay on SF-295 CNS is 22.8 µM; in the assay with SK-MEL-28 melanoma, 31.1 µM; in the assay on SK-OV-3 ovarian, greater than 100 µM; in the assay on SN12C renal, 18.1 µM. Moreover, the TGI with ACHN renal was 36.9 µM; in the assay on EKVX NSCLC, greater than 100 µM; in the assay with HOP-62 NSCLC it was greater than 100 µM; in the assay with K-562 leukemia, 55 µM; with OVCAR-4 ovarian it was greater than 100 µM; in the assay with RXF 393 renal it was 46.7 µM. Besides, the TGI in the assay with SF-295 CNS was 60.8 µM; with SK-MEL-28 melanoma it was greater than 100 µM; with SK-OV-3 ovarian, greater than 100 µM; with SN12C renal, 46.4 µM.

As for `CC(CC(=O)O)C(C(=O)O)C(=O)O` (centres undefined), the TGI with ACHN renal, in the assay with EKVX NSCLC, with HOP-62 NSCLC, with K-562 leukemia, with OVCAR-4 ovarian and in the assay on RXF 393 renal was greater than 100 µM each time. In addition, the TGI in the assay with SF-295 CNS, with SK-MEL-28 melanoma, in the assay with SK-OV-3 ovarian and in the assay with SN12C renal was greater than 100 µM each time.

Take `Cc1ccc(-c2nc3ccc([N+](=O)[O-])cc3[nH]2)cc1`: the TGI with ACHN renal, in the assay with EKVX NSCLC, in the assay on HOP-62 NSCLC, in the assay with K-562 leukemia, with OVCAR-4 ovarian and in the assay with RXF 393 renal was greater than 100 µM each time. The TGI in the assay on SF-295 CNS, in the assay on SK-MEL-28 melanoma, with SK-OV-3 ovarian and in the assay on SN12C renal was greater than 100 µM throughout.

For the origin of these results see PubChem BioAssay (NCI).
